Patent publication US6737383B1, “Herbicidal oxadiazolidines” (priority 1999, dated 2004)

How the values were obtained:
rape = assay: Test B pre/postemergence rape; assay type: in vivo, Brassica napus
In short: (§1)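 Herbicidal effect was estimated by eye on a ten-point control scale after plants spent twelve to sixteen days in a greenhouse following soil or foliar treatment. Foliar sprays targeted plants at one to four leaves; all doses were formulated in a non-phytotoxic solvent with surfactant.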

purple nutsedge = assay: Test B pre/postemergence purple nutsedge; assay type: in vivo, Cyperus rotundus
In short: as §1

sugar beet = assay: Test B pre/postemergence sugar beet; assay type: in vivo, Beta vulgaris
In short: as §1

duck salad = assay: Test B flood test duck salad; assay type: in vivo, Heteranthera limosa; conditions: for Plant response rating, Ducksalad (0 to 10 scale, 0 is no effect, 10 is complete control) / Ducksalad plant response rating (0 to 10 scale, 0 is no effect, 10 is complete control): visual evaluation after twelve to sixteen days; for Ducksalad plant response rating (0 to 10 scale, 0 is no effect, 10 is complete control): under heading Pre-emergence
In short: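 Flood test on plants grown to the 2-leaf stage; treated plants kept in greenhouse twelve to sixteen days, then visually rated against controls on a 0 (no effect) to 10 (complete control) scale.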

[1] = Postemergence, Rate 250 g/ha, scale 0 to 10
[2] = Preemergence, Rate 62 g/ha, scale of 0 to 10 where 0 is no effect and 10 is complete control
[3] = Preemergence, Rate 125 g/ha, scale of 0 to 10 where 0 is no effect and 10 is complete control
[4] = Preemergence, Rate 250 g/ha, scale 0 to 10, 0 is no effect, 10 is complete control
[5] = Preemergence, Rate 500 g/ha, scale 0 to 10, 0 is no effect, 10 is complete control
[6] = Rate 62 g/ha, Postemergence, scale 0 to 10 (0 no effect, 10 complete control)
[7] = Rate 125 g/ha, Postemergence, scale 0 to 10, 0 is no effect, 10 is complete control
[8] = Rate 62 g/ha, flood test species, Pre-emergence
[9] = Rate 125 g/ha, flood test species
[10] = Rate 250 g/ha, Pre-emergence (flood test species), scale 0 to 10, 0 is no effect, 10 is complete control
[11] = Rate 500 g/ha, Pre-emergence, flood test species, scale 0 to 10 (0 no effect, 10 complete control)
[12] = Postemergence, Rate 125 g/ha, scale 0 to 10, 0 is no effect, 10 is complete control
[13] = Preemergence, Rate 250 g/ha, scale of 0 to 10 where 0 is no effect and 10 is complete control
[14] = Preemergence, Rate 500 g/ha, scale of 0 to 10 where 0 is no effect and 10 is complete control
[15] = Rate 500 g/ha, Postemergence, scale 0 to 10, 0 no effect, 10 complete control
[16] = Rate 125 g/ha, Pre-emergence, flood test species, scale 0 to 10 where 0 is no effect and 10 is complete control
[17] = Rate 250 g/ha, Pre-emergence, flood-test species, scale 0 to 10, 0 is no effect, 10 is complete control
[18] = Postemergence, Rate 62 g/ha, scale 0 to 10, 0 is no effect, 10 is complete control
[19] = Postemergence, Rate 250 g/ha, scale 0 to 10, 0 no effect, 10 complete control
[20] = Preemergence, Rate 62 g/ha, scale 0 to 10, 0 is no effect, 10 is complete control
[21] = Preemergence, Rate 125 g/ha, scale 0 to 10 (0 no effect, 10 complete control)
[22] = Preemergence, Rate 500 g/ha, scale 0 (no effect) to 10 (complete control)
[23] = Rate 125 g/ha, Postemergence, scale 0 to 10, 0 no effect, 10 complete control
[24] = Postemergence, Rate 125 g/ha, scale of 0 to 10 where 0 is no effect and 10 is complete control
[25] = Preemergence, Rate 250 g/ha, scale 0 to 10 (0 no effect, 10 complete control)
[26] = Rate 500 g/ha, Postemergence, scale 0 to 10, 0 is no effect, 10 is complete control
[27] = Rate 500 g/ha, Pre-emergence section of Table B, 0 to 10 scale (0 no effect, 10 complete control)

CC(C)N(C(=O)n1oc(=O)n(CCCl)c1=O)c1ccccc1 [Compound 469]
Rape plant response rating (rape; [1]): 0 | Plant response rating, Rape (rape; [2]): 0 | Plant response rating, Rape (rape; [3]): 2 | Rape plant response rating (rape; [4]): 10 | Rape plant response rating (rape; [5]): 10 | Rape plant response rating (rape; [6]): 0 | Rape plant response rating (rape; [7]): 0 | Nutsedge plant response rating (purple nutsedge; [1]): 0 | Plant response rating, Nutsedge (purple nutsedge; [2]): 0 | Plant response rating, Nutsedge (purple nutsedge; [3]): 0 | Nutsedge plant response rating (purple nutsedge; [4]): 0 | Nutsedge plant response rating (purple nutsedge; [6]): 0 | Nutsedge plant response rating (purple nutsedge; [7]): 0 | Sugarbeets plant response rating (sugar beet; [1]): 2 | Plant response rating, Sugarbeets (sugar beet; [2]): 6 | Plant response rating, Sugarbeets (sugar beet; [3]): 8 | Sugarbeets plant response rating (sugar beet; [4]): 8 | Sugarbeets plant response rating (sugar beet; [5]): 10 | Sugarbeets plant response rating (sugar beet; [6]): 0 | Sugarbeets plant response rating (sugar beet; [7]): 0 | Plant response rating, Ducksalad (0 to 10 scale, 0 is no effect, 10 is complete control) (duck salad; [8]): 0 | Ducksalad plant response rating (0 to 10 scale, 0 is no effect, 10 is complete control) (duck salad; [9]): 0 | Ducksalad plant response rating (duck salad; [10]): 0 | Ducksalad plant response rating (duck salad; [11]): 0

Cc1c(-n2c(=O)on(C(=O)N(c3ccc(Cl)cc3)C(C)C)c2=O)ccc2ccccc12 [Compound 336]
Plant response rating, Rape (rape; [12]): 0 | Rape plant response rating (rape; [2]): 0 | Rape plant response rating (0 to 10 scale) (rape; Preemergence, Rate 125 g/ha): 0 | Rape plant response rating (rape; [13]): 0 | Rape plant response rating (rape; [14]): 0 | Rape plant response rating (rape; [6]): 0 | Plant response rating, Rape (rape; [15]): 0 | Plant response rating, Nutsedge (purple nutsedge; [12]): 0 | Nutsedge plant response rating (purple nutsedge; [2]): 0 | Nutsedge plant response rating (0 to 10 scale) (purple nutsedge; Preemergence, Rate 125 g/ha): 0 | Nutsedge plant response rating (purple nutsedge; [13]): 0 | Nutsedge plant response rating (purple nutsedge; [14]): 0 | Nutsedge plant response rating (purple nutsedge; [6]): 0 | Plant response rating, Nutsedge (purple nutsedge; [15]): 0 | Plant response rating, Sugarbeets (sugar beet; [12]): 0 | Sugarbeets plant response rating (sugar beet; [2]): 0 | Sugarbeets plant response rating (0 to 10 scale) (sugar beet; Preemergence, Rate 125 g/ha): 0 | Sugarbeets plant response rating (sugar beet; [13]): 0 | Sugarbeets plant response rating (sugar beet; [14]): 0 | Sugarbeets plant response rating (sugar beet; [6]): 0 | Plant response rating, Sugarbeets (sugar beet; [15]): 0 | Ducksalad plant response rating (duck salad; Rate 62 g/ha, headed Pre-emergence (flood test species), scale 0 to 10 (0 no effect, 10 complete control)): 0 | Ducksalad plant response rating (duck salad; [16]): 0 | Ducksalad plant response rating (duck salad; [17]): 0 | Ducksalad plant response rating (duck salad; [11]): 0

Cc1cccc(Cl)c1-n1c(=O)on(C(=O)N(c2ccc(F)cc2)C(C)C)c1=O [Compound 53]
Rape plant response rating (rape; [18]): 0 | Rape plant response rating (rape; [19]): 0 | Plant response rating, Rape (rape; [20]): 0 | Plant response rating, Rape (rape; [21]): 0 | Plant response rating, Rape (rape; [13]): 0 | Rape plant response rating (rape; [22]): 0 | Rape plant response rating (rape; [23]): 0 | Rape plant response rating (rape; [15]): 3 | Nutsedge plant response rating (purple nutsedge; [18]): 0 | Nutsedge plant response rating (purple nutsedge; [19]): 0 | Plant response rating, Nutsedge (purple nutsedge; [20]): 0 | Plant response rating, Nutsedge (purple nutsedge; [21]): 0 | Plant response rating, Nutsedge (purple nutsedge; [13]): 0 | Nutsedge plant response rating (purple nutsedge; [22]): 0 | Nutsedge plant response rating (purple nutsedge; [23]): 0 | Nutsedge plant response rating (purple nutsedge; [15]): 0 | Sugarbeets plant response rating (sugar beet; [18]): 0 | Sugarbeets plant response rating (sugar beet; [19]): 1 | Plant response rating, Sugarbeets (sugar beet; [20]): 0 | Plant response rating, Sugarbeets (sugar beet; [21]): 0 | Plant response rating, Sugarbeets (sugar beet; [13]): 0 | Sugarbeets plant response rating (sugar beet; [22]): 3 | Sugarbeets plant response rating (sugar beet; [23]): 0 | Sugarbeets plant response rating (sugar beet; [15]): 2 | Ducksalad plant response rating (duck salad; [18]): 0 | Ducksalad plant response rating (duck salad; Rate 125 g/ha, Postemergence section (flood test species), scale 0 to 10, 0 no effect, 10 complete control): 0 | Ducksalad plant response rating (duck salad; Rate 500 g/ha, listed under Postemergence (flood test species), scale 0 to 10, 0 no effect, 10 complete control): 0 | Ducksalad plant response rating (duck salad; flood test, listed under Postemergence, Rate 250 g/ha, scale 0 to 10, 0 no effect, 10 complete control): 0

CC[C@H](C)n1c(=O)on(C(=O)N(c2ccc(Cl)cc2)C(C)C)c1=O [Compound 664]
Plant response rating, Rape (rape; [18]): 0 | Rape plant response rating (rape; [24]): 0 | Rape plant response rating (rape; [2]): 0 | Rape plant response rating (rape; [3]): 1 | Plant response rating, Rape (rape; [25]): 1 | Plant response rating, Rape (rape; [14]): 6 | Rape plant response rating (rape; [26]): 3 | Plant response rating, Nutsedge (purple nutsedge; [18]): 0 | Nutsedge plant response rating (purple nutsedge; [24]): 0 | Nutsedge plant response rating (purple nutsedge; [2]): 0 | Nutsedge plant response rating (purple nutsedge; [3]): 0 | Plant response rating, Nutsedge (purple nutsedge; [25]): 0 | Plant response rating, Nutsedge (purple nutsedge; [14]): 0 | Nutsedge plant response rating (purple nutsedge; [26]): 0 | Plant response rating, Sugarbeets (sugar beet; [18]): 0 | Sugarbeets plant response rating (sugar beet; [24]): 0 | Sugarbeets plant response rating (sugar beet; [2]): 0 | Sugarbeets plant response rating (sugar beet; [3]): 0 | Plant response rating, Sugarbeets (sugar beet; [25]): 0 | Plant response rating, Sugarbeets (sugar beet; [14]): 5 | Sugarbeets plant response rating (sugar beet; [26]): 0 | Plant response rating, Ducksalad (0 to 10 scale, 0 is no effect, 10 is complete control) (duck salad; [8]): 0 | Ducksalad plant response rating (0 to 10 scale, 0 is no effect, 10 is complete control) (duck salad; [9]): 0 | Ducksalad plant response rating (duck salad; [10]): 0 | Ducksalad plant response rating (duck salad; [27]): 0

CC(C)N(C(=O)n1oc(=O)n(-c2ccc3ccccc3c2)c1=O)c1ccc(Cl)cc1 [Compound 333]
Plant response rating, Rape (rape; [12]): 0 | Rape plant response rating (rape; [2]): 0 | Rape plant response rating (0 to 10 scale) (rape; Preemergence, Rate 125 g/ha): 0 | Rape plant response rating (rape; [13]): 0 | Rape plant response rating (rape; [14]): 0 | Rape plant response rating (rape; [6]): 0 | Plant response rating, Rape (rape; [15]): 0 | Plant response rating, Nutsedge (purple nutsedge; [12]): 0 | Nutsedge plant response rating (purple nutsedge; [2]): 0 | Nutsedge plant response rating (0 to 10 scale) (purple nutsedge; Preemergence, Rate 125 g/ha): 0 | Nutsedge plant response rating (purple nutsedge; [13]): 0 | Nutsedge plant response rating (purple nutsedge; [14]): 0 | Nutsedge plant response rating (purple nutsedge; [6]): 0 | Plant response rating, Nutsedge (purple nutsedge; [15]): 0 | Plant response rating, Sugarbeets (sugar beet; [12]): 0 | Sugarbeets plant response rating (sugar beet; [2]): 0 | Sugarbeets plant response rating (0 to 10 scale) (sugar beet; Preemergence, Rate 125 g/ha): 0 | Sugarbeets plant response rating (sugar beet; [13]): 0 | Sugarbeets plant response rating (sugar beet; [14]): 0 | Sugarbeets plant response rating (sugar beet; [6]): 0 | Plant response rating, Sugarbeets (sugar beet; [15]): 0 | Ducksalad plant response rating (duck salad; Pre-emergence, Rate 1000 g/ha, scale 0 to 10 (0 no effect, 10 complete control)): 0 | Ducksalad plant response rating (duck salad; [16]): 0 | Ducksalad plant response rating (duck salad; [17]): 0 | Ducksalad plant response rating (duck salad; [11]): 0

CC(C)N(C(=O)n1oc(=O)n(CC2CCCCO2)c1=O)c1ccccc1 (centres unmarked) [Compound 659]
Plant response rating, Rape (rape; [18]): 0 | Rape plant response rating (rape; [24]): 0 | Rape plant response rating (rape; [2]): 0 | Rape plant response rating (rape; [3]): 0 | Plant response rating, Rape (rape; [25]): 2 | Plant response rating, Rape (rape; [14]): 10 | Rape plant response rating (rape; [26]): 1 | Plant response rating, Nutsedge (purple nutsedge; [18]): 0 | Nutsedge plant response rating (purple nutsedge; [24]): 0 | Nutsedge plant response rating (purple nutsedge; [2]): 0 | Nutsedge plant response rating (purple nutsedge; [3]): 0 | Plant response rating, Nutsedge (purple nutsedge; [25]): 0 | Plant response rating, Nutsedge (purple nutsedge; [14]): 0 | Nutsedge plant response rating (purple nutsedge; [26]): 0 | Plant response rating, Sugarbeets (sugar beet; [18]): 0 | Sugarbeets plant response rating (sugar beet; [24]): 0 | Sugarbeets plant response rating (sugar beet; [2]): 0 | Sugarbeets plant response rating (sugar beet; [3]): 0 | Plant response rating, Sugarbeets (sugar beet; [25]): 0 | Plant response rating, Sugarbeets (sugar beet; [14]): 5 | Sugarbeets plant response rating (sugar beet; [26]): 4 | Plant response rating, Ducksalad (0 to 10 scale, 0 is no effect, 10 is complete control) (duck salad; [8]): 0 | Ducksalad plant response rating (0 to 10 scale, 0 is no effect, 10 is complete control) (duck salad; [9]): 0 | Ducksalad plant response rating (duck salad; [10]): 0 | Ducksalad plant response rating (duck salad; [27]): 0
